Source: patent US20100298141A1, “SUBSTITUTED PYRIDINE N-OXIDE HERBICIDES” (E. I. DU PONT DE NEMOURS AND COMPANY, priority 2007, published 2010)

Key:
wheat = experiment: Test A pre-/postemergence greenhouse test; format: in vivo, Triticum aestivum; conditions: for Plant response rating, Wheat: 0 to 100 scale where 0 is no effect and 100 is complete control; for Wheat plant response rating: 0 to 100 scale
Method in brief: (§1)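 Planting was into mixed loam soil and sand; preemergence treatment followed as a directed soil spray. Concurrently, emerged plants (one- to two-leaf, 2–10 cm) received postemergence applications of identically formulated compound (non-phytotoxic solvent, surfactant). After approximately ten days under greenhouse conditions, injury was judged by eye against untreated plants.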

corn = experiment: Test A pre-/postemergence greenhouse test; format: in vivo, Zea mays; conditions: for Plant response rating, Corn: 0 to 100 scale where 0 is no effect and 100 is complete control; for Corn plant response rating: 0 to 100 scale
Method in brief: as §1

redroot pigweed = experiment: Test A pre-/postemergence greenhouse test; format: in vivo, Amaranthus retroflexus; conditions: for Plant response rating, Pigweed: 0 to 100 scale where 0 is no effect and 100 is complete control; for Pigweed plant response rating: 0 to 100 scale
Method in brief: as §1

duck salad = experiment: Test C flooded paddy test; format: in vivo, Heteranthera limosa; conditions: Flood
Method in brief: (§2)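 In-water treatment: compound dosed into 3 cm flood over soil, water level unchanged throughout. Controls run alongside; visual assessment at day 13–15.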

crabgrass = experiment: Test A pre-/postemergence greenhouse test; format: in vivo, Digitaria sanguinalis; conditions: for Plant response rating, Crabgrass, Large: 0 to 100 scale where 0 is no effect and 100 is complete control; for Crabgrass, Large plant response rating: 0 to 100 scale
Method in brief: as §1

giant foxtail = experiment: Test A pre-/postemergence greenhouse test; format: in vivo, Setaria faberi; conditions: for Plant response rating, Foxtail, Giant: 0 to 100 scale where 0 is no effect and 100 is complete control; for Foxtail, Giant plant response rating: 0 to 100 scale
Method in brief: as §1

velvetleaf = experiment: Test A pre-/postemergence greenhouse test; format: in vivo, Abutilon theophrasti; conditions: for Plant response rating, Velvetleaf: 0 to 100 scale where 0 is no effect and 100 is complete control; for Velvetleaf plant response rating: 0 to 100 scale
Method in brief: as §1

morningglory = experiment: Test A pre-/postemergence greenhouse test; format: in vivo, Ipomoea spp.; conditions: for Plant response rating, Morningglory: 0 to 100 scale where 0 is no effect and 100 is complete control; for Morningglory plant response rating: 0 to 100 scale
Method in brief: as §1

rice = experiment: Test C flooded paddy test; format: in vivo, Oryza sativa; conditions: Flood
Method in brief: as §2

umbrella sedge = experiment: Test C flooded paddy test; format: in vivo, Cyperus difformis; conditions: Flood
Method in brief: as §2

barnyardgrass [1] = experiment: Test A pre-/postemergence greenhouse test; format: in vivo, Echinochloa crus-galli; conditions: for Plant response rating, Barnyardgrass: 0 to 100 scale where 0 is no effect and 100 is complete control; for Barnyardgrass plant response rating: 0 to 100 scale
Method in brief: as §1

barnyardgrass [2] = experiment: Test C flooded paddy test; format: in vivo, Echinochloa crus-galli; conditions: Flood
Method in brief: as §2

[3] = Postemergence, 500 g ai/ha, 0 is no effect, 100 is complete control
[4] = Preemergence, 125 g ai/ha, 0 no effect, 100 complete control
[5] = Preemergence, 500 g ai/ha, 0 no effect, 100 complete control
[6] = 62 g ai/ha, scale 0 to 100 (0 no effect, 100 complete control)
[7] = 250 g ai/ha, scale 0 to 100, 0 no effect, 100 complete control, 13 to 15 days

SMILES | Plant response rating, Wheat (wheat; Postemergence, 125 g ai/ha) | Wheat plant response rating (wheat; [3]) | Wheat plant response rating (wheat; [4]) | Wheat plant response rating (wheat; [5]) | Plant response rating, Corn (corn; Postemergence, 125 g ai/ha) | Corn plant response rating (corn; [3]) | Corn plant response rating (corn; [4]) | Plant response rating, Corn (corn; Preemergence, 500 g ai/ha) | Plant response rating, Pigweed (redroot pigweed; Postemergence, 125 g ai/ha) | Pigweed plant response rating (redroot pigweed; [3]) | Pigweed plant response rating (redroot pigweed; [4]) | Plant response rating, Pigweed (redroot pigweed; Preemergence, 500 g ai/ha) | Plant response rating, Ducksalad (duck salad; [6]) | Plant response rating, Ducksalad (duck salad; [7]) | Plant response rating, Crabgrass, Large (crabgrass; Postemergence, 125 g ai/ha) | Crabgrass, Large plant response rating (crabgrass; [3]) | Crabgrass, Large plant response rating (crabgrass; [4]) | Plant response rating, Crabgrass, Large (crabgrass; Preemergence, 500 g ai/ha) | Plant response rating, Foxtail, Giant (giant foxtail; Postemergence, 125 g ai/ha) | Foxtail, Giant plant response rating (giant foxtail; [3]) | other results
Cc1cc[n+]([O-])c([S+]([O-])Cc2c(C(F)(F)F)nn(C)c2OC(C)C(F)(F)F)c1 (centres unmarked) [Compound 88] | 30 | 70 | 20 | 80 | 20 | 60 | 0 | 50 | 30 | 80 | 90 | 100 | 0 | 70 | 50 | 80 | 20 | 90 | 50 | 90 | Foxtail, Giant plant response rating (giant foxtail; [4]): 90; Plant response rating, Foxtail, Giant (giant foxtail; Preemergence, 500 g ai/ha): 100; Plant response rating, Velvetleaf (velvetleaf; Postemergence, 125 g ai/ha): 0; Velvetleaf plant response rating (velvetleaf; [3]): 50; Velvetleaf plant response rating (velvetleaf; [4]): 0; Velvetleaf plant response rating (velvetleaf; [5]): 90; Plant response rating, Morningglory (morningglory; Postemergence, 125 g ai/ha): 60; Morningglory plant response rating (morningglory; [3]): 90; Morningglory plant response rating (morningglory; [4]): 70; Plant response rating, Morningglory (morningglory; Preemergence, 500 g ai/ha): 90; Plant response rating, Rice (rice; [6]): 0; Plant response rating, Rice (rice; [7]): 45; Plant response rating, Sedge, Umbrella (umbrella sedge; [6]): 0; Plant response rating, Sedge, Umbrella (umbrella sedge; [7]): 85; Plant response rating, Barnyardgrass (barnyardgrass [1]; Postemergence, 125 g ai/ha): 30; Barnyardgrass plant response rating (barnyardgrass [1]; [3]): 80; Barnyardgrass plant response rating (barnyardgrass [1]; [4]): 60; Plant response rating, Barnyardgrass (barnyardgrass [1]; Preemergence, 500 g ai/ha): 100; Plant response rating, Barnyardgrass (barnyardgrass [2]; [6]): 0; Plant response rating, Barnyardgrass (barnyardgrass [2]; [7]): 30
Cn1nc(C(F)(F)F)c(CS(=O)(=O)c2ccc(Cl)c[n+]2[O-])c1OCC(F)(F)C(F)(F)F [Compound 97] | 0 | 30 | 0 | 0 | 0 | 0 | 0 | 0 | 0 | 20 | 30 | 30 | 0 | 40 | 20 | 60 | 20 | 70 | 30 | 70 | Foxtail, Giant plant response rating (giant foxtail; [4]): 70; Plant response rating, Foxtail, Giant (giant foxtail; Preemergence, 500 g ai/ha): 80; Plant response rating, Velvetleaf (velvetleaf; Postemergence, 125 g ai/ha): 0; Velvetleaf plant response rating (velvetleaf; [3]): 30; Velvetleaf plant response rating (velvetleaf; [4]): 0; Velvetleaf plant response rating (velvetleaf; [5]): 0; Plant response rating, Morningglory (morningglory; Postemergence, 125 g ai/ha): 0; Morningglory plant response rating (morningglory; [3]): 0; Morningglory plant response rating (morningglory; [4]): 0; Plant response rating, Morningglory (morningglory; Preemergence, 500 g ai/ha): 20; Plant response rating, Rice (rice; [6]): 0; Plant response rating, Rice (rice; [7]): 30; Plant response rating, Sedge, Umbrella (umbrella sedge; [6]): 0; Plant response rating, Sedge, Umbrella (umbrella sedge; [7]): 0; Plant response rating, Barnyardgrass (barnyardgrass [1]; Postemergence, 125 g ai/ha): 20; Barnyardgrass plant response rating (barnyardgrass [1]; [3]): 70; Barnyardgrass plant response rating (barnyardgrass [1]; [4]): 10; Plant response rating, Barnyardgrass (barnyardgrass [1]; Preemergence, 500 g ai/ha): 90; Plant response rating, Barnyardgrass (barnyardgrass [2]; [6]): 0; Plant response rating, Barnyardgrass (barnyardgrass [2]; [7]): 0
